The values below come from patent publication US8618152B2, “Inhibitors of serine proteases, particularly HCV NS3-NS4A proteases” (Vertex Pharmaceuticals Incorporated, priority 2003, dated 2013).

Structures are written as SMILES. Where two headings read alike, the source gives them in different places. *1 amine or outer side, *2 acyl side, *3 side chain or, on linkers, in order; H or OH if unused. Where a SMILES comes first, the peptide text is derived from it. [ ]: non-standard residue; d: D form. The star is where a group is joined. Pro(3S-Et) = CC[C@H]1CCN[C@@H]1C(=O)O; Pyrazinecarbonyl = O=C(c1cnccn1)*; X1 = CCCC(N[*:1])C(=O)C(=O)[*:2]; Chg = N[C@H](C(=O)O)C1CCCCC1; Tle = CC(C)(C)[C@H](N)C(=O)O

Broadly, the IC50 is the concentration at which inhibition is half-maximal. By Ki is commonly meant a dissociation constant, usually derived from enzyme kinetics or from competition with a known ligand.

The subject of assay [1] is Cells containing hepatitis C virus (HCV) replicon. Nature of the assay: HCV replicon cell assay. It counts as cell-based. The protocol:
HCV Replicon Cell Assay Protocol
Cells containing hepatitis C virus (HCV) replicon were maintained in DMEM containing 10% fetal bovine serum (FBS), 0.25 mg per ml of G418, with appropriate supplements (media A).
On day 1, replicon cell monolayer was treated with a trypsin:EDTA mixture, removed, and then media A was diluted into a final concentration of 100,000 cells per ml with. 10,000 cells in 100 ul were plated into each well of a 96-well tissue culture plate, and cultured overnight in a tissue culture incubator at 37° C.
On day 2, compounds (in 100% DMSO) were serially diluted into DMEM containing 2% FBS, 0.5% DMSO, with appropriate supplements (media B). The final concentration of DMSO was maintained at 0.5% throughout the dilution series.
Media on the replicon cell monolayer was removed, and then media B containing various concentrations of compounds was added. Media B without any compound was added to other wells as no compound controls.
Cells were incubated with compound or 0.5% DMSO in media B for 48 hours in a tissue culture incubator at 37° C. At the end of the 48-hour incubation, the media was removed, and the replicon cell monolayer was washed once with PBS and stored at −80° C. prior to RNA extraction.
Culture plates with treated replicon cell monolayers were thawed, and a fixed amount of another RNA virus, such as Bovine Viral Diarrhea Virus (BVDV) was added to cells in each well. RNA extraction reagents (such as reagents from RNeasy kits) were added to the cells immediately to avoid degradation of RNA. Total RNA was extracted according the instruction of manufacturer with modification to improve extraction efficiency and consistency. Finally, total cellular RNA, including HCV replicon RNA, was eluted and stored at −80° C. until further processing.
A Taqman real-time RT-PCR quantification assay was set up with two sets of specific primers and probe. One was for HCV and the other was for BVDV. Total RNA extractants from treated HCV replicon cells was added to the PCR reactions for quantification of both HCV and BVDV RNA in the same PCR well. Experimental failure was flagged and rejected based on the level of BVDV RNA in each well. The level of HCV RNA in each well was calculated according to a standard curve run in the same PCR plate. The percentage of inhibition or decrease of HCV RNA level due to compound treatment was calculated using the DMSO or no compound control as 0% of inhibition. The IC50 (concentration at which 50% inhibition of HCV RNA level is observed) was calculated from the titration curve of any given compound.
(A replicon is a self-replicating genome or part of one, used to study replication in cells.)

Assay [2] addresses HCV NS3-NS4A protease (tNS3 with KK4A) (Hepatitis C virus genotype 1a, UniProt P27958). Nature of the assay: HCV Ki assay (HPLC microbore separation of 5AB substrate and products). It counts as biochemical. The procedure:
HPLC Microbore Method for Separation of 5AB Substrate and Products
Substrate: NH2-Glu-Asp-Val-Val-(alpha)Abu-Cys-Ser-Met-Ser-Tyr-COOH
A stock solution of 20 mM 5AB (or concentration of your choice) was made in DMSO w/0.2M DTT. This was stored in aliquots at −20 C.
Buffer: 50 mM HEPES, pH 7.8; 20% glycerol; 100 mM NaCl
Total assay volume was 100 μL
The buffer, KK4A, DTT, and tNS3 were combined; distributed 78 μL each into wells of 96 well plate. This was incubated at 30 C for ˜5-10 min.
2.5 μL of appropriate concentration of test compound was dissolved in DMSO (DMSO only for control) and added to each well. This was incubated at room temperature for 15 min.
Initiated reaction by addition of 20 μL of 250 μM 5AB substrate (25 μM concentration is equivalent or slightly lower than the Km for 5AB).
Incubated for 20 min at 30 C.
Terminated reaction by addition of 25 μL of 10% TFA
Transferred 120 μL aliquots to HPLC vials
Separated SMSY product from substrate and KK4A by the following method:
Microbore Separation Method:
Instrumentation: Agilent 1100
Column thermostated chamber G1316A
Diode array detector G1315A
Solvent A=HPLC grade water+0.1% TFA
Solvent B=HPLC grade acetonitrile+0.1% TFA
Stop time: 17 min Post-run time: 10 min.

Where [3] appears, read: 50% inhibition of HCV RNA level, 48-hour incubation, Taqman real-time RT-PCR, read-out: IC50.
Setting [4] is: 25 nM tNS3, 25 μM KK4A, 25 μM 5AB substrate, 20 min at 30 C, read-out: Ki.

Chain of HCV NS3-NS4A protease (tNS3 with KK4A) (P27958 1027-1208): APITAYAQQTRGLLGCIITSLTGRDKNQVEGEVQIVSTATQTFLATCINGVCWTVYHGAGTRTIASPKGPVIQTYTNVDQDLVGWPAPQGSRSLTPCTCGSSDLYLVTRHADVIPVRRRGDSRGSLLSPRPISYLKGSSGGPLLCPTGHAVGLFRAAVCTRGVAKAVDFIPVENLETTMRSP

With `CC[C@H]1CCN(C(=O)[C@@H](NC(=O)[C@@H](NC(=O)c2cnccn2)C2CCCCC2)C(C)(C)C)[C@@H]1C(=O)NC(CC(F)F)C(=O)C(=O)NC1CC1` (some centres unmarked) [Compound 52], the IC50 in assay [1] (setting [3]) was below 500 nM. The Ki in assay [2] (setting [4]) is below 100 nM.

Take `CCC[C@H](NC(=O)[C@@H]1[C@@H](CC)[C@@H](C)CN1C(=O)[C@@H](NC(=O)[C@@H](NC(=O)c1cnccn1)C1CCCCC1)C(C)(C)C)C(=O)C(=O)NC1CC1` [Compound 76]: the half-inhibitory concentration (IC50) in assay [1] (setting [3]) is above 1000 nM. In assay [2] (setting [4]), the Ki lay in the range of 100 to 500 nM.

Take `CCCC(NC(=O)[C@@H]1[C@@H](C2CCCCC2)CCN1C(=O)[C@@H](NC(=O)[C@@H](NC(=O)c1cnccn1)C1CCCCC1)C(C)(C)C)C(=O)C(=O)N[C@@H](C)c1ccccc1` (some centres unmarked) [Compound 62]: the IC50 in assay [1] (setting [3]) lay within 500 to 1000 nM. For the same molecule, in assay [2] (setting [4]), the inhibitory constant (Ki) is below 100 nM.

Take `CCC[C@H](NC(=O)[C@@H]1[C@@H](C2CCCCC2)CCN1C(=O)[C@@H](NC(=O)[C@@H](NC(=O)c1cnccn1)C1CCCCC1)C(C)(C)C)C(=O)C(=O)N[C@@H](C)C1CCCCC1` [Compound 67]: the IC50 in assay [1] (setting [3]) is above 1000 nM. Further, in assay [2] (setting [4]), the Ki is above 500 nM.

Molecule `CCC[C@H](NC(=O)[C@@H]1[C@@H](C(C)C)CCN1C(=O)[C@@H](NC(=O)[C@@H](NC(=O)c1cnccn1)C1CCCCC1)C(C)C)C(=O)C(=O)NC1CC1` [Compound 64] gave a half-maximal inhibitory concentration (IC50) in assay [1] (48 h) above 1000 nM. Moreover, the Ki in assay [2] (setting [4]) lay within 100 to 500 nM.

For `CCC[C@H](NC(=O)[C@@H]1[C@@H](C(C)(C)C)CCN1C(=O)[C@@H](NC(=O)[C@@H](NC(=O)c1cnccn1)C1CCCCC1)C(C)(C)C)C(=O)C(=O)NC1CC1` [Compound 73], the IC50 in assay [1] (setting [3]) was above 1000 nM. Moreover, the inhibitory constant (Ki) in assay [2] (setting [4]) is 100 to 500 nM.

With `CCC[C@H](NC(=O)[C@@H]1[C@@H](Cc2ccccc2)CCN1C(=O)[C@@H](NC(=O)[C@@H](NC(=O)c1cnccn1)C1CCCCC1)C(C)(C)C)C(=O)C(=O)NC1CC1` [Compound 77], in assay [1] (setting [3]), the IC50 is above 1000 nM. Besides, the Ki in assay [2] (setting [4]) is 100 to 500 nM.

Consider `CCCC(NC(=O)[C@@H]1[C@@H](C2CCCCC2)CCN1C(=O)[C@@H](NC(=O)[C@@H](NC(=O)c1cnccn1)C1CCCCC1)C(C)(C)C)C(=O)C(=O)NC1CC1` (some centres unmarked) [Compound 55], for which the IC50 in assay [1] (setting [3]) was 500 to 1000 nM. Further, in assay [2] (setting [4]), the Ki was below 100 nM.

Turning to `CCC[C@H](NC(=O)[C@@H]1[C@@H](C2CCCC2)CCN1C(=O)[C@@H](NC(=O)[C@@H](NC(=O)c1cnccn1)C1CCCCC1)C(C)(C)C)C(=O)C(=O)NC1CC1` [Compound 75], the IC50 in assay [1] (setting [3]) was above 1000 nM. Further, in assay [2] (setting [4]), the Ki fell in the range of 100 to 500 nM.

With `CCC[C@H](NC(=O)[C@@H]1[C@@H](C2CCCCC2)CCN1C(=O)[C@@H](NC(=O)[C@@H](NC(=O)c1cc([N+](=O)[O-])c[nH]1)C1CCCCC1)C(C)(C)C)C(=O)C(=O)NC1CC1` [Compound 71], the IC50 in assay [1] (setting [3]) was above 1000 nM. Also, the Ki in assay [2] (setting [4]) was below 100 nM.

With `CCCC(NC(=O)[C@@H]1[C@@H](CC)CCN1C(=O)[C@@H](NC(=O)[C@@H](NC(=O)c1cnccn1)C1CCCCC1)C(C)(C)C)C(=O)C(=O)N[C@@H](C)c1ccccc1` (some centres unmarked) [Compound 44], the IC50 in assay [1] (setting [3]) fell in the range of 500 to 1000 nM. Further, the Ki in assay [2] (setting [4]) lay in the range of 100 to 500 nM.

Turning to `CCC[C@H](NC(=O)[C@@H]1[C@@H](C(C)C)CCN1C(=O)[C@@H](NC(=O)[C@@H](NC(=O)c1ncc[nH]1)C1CCCCC1)C(C)(C)C)C(=O)C(=O)NC1CC1` [Compound 69], in assay [1] (setting [3]), the IC50 is below 500 nM. Further, the Ki in assay [2] (setting [4]) was below 100 nM.

On to `CCC[C@H](NC(=O)[C@@H]1[C@@H](C2CCCCC2)CCN1C(=O)[C@@H](NC(=O)[C@@H](NC(=O)c1ncc[nH]1)C1CCCCC1)C(C)(C)C)C(=O)C(=O)NC1CC1` [Compound 68], for which the IC50 in assay [1] (setting [3]) is below 500 nM. Also, the Ki in assay [2] (setting [4]) was below 100 nM.

As to `CCCC(NC(=O)[C@@H]1[C@@H](CC)CCN1C(=O)[C@@H](NC(=O)[C@@H](NC(=O)c1cnccn1)C1CCCCC1)C(C)(C)C)C(=O)C(=O)NC1CC1` (some centres unmarked) [Compound 39], in assay [1] (setting [3]), the IC50 fell in the range of 500 to 1000 nM. Besides, the Ki in assay [2] (setting [4]) was below 100 nM.

As to `CCC[C@H](NC(=O)[C@@H]1[C@@H](C(CC)CC)CCN1C(=O)[C@@H](NC(=O)[C@@H](NC(=O)c1cnccn1)C1CCCCC1)C(C)(C)C)C(=O)C(=O)NC1CC1` [Compound 74], the half-inhibitory concentration (IC50) in assay [1] (setting [3]) is above 1000 nM. In addition, the Ki in assay [2] (setting [4]) lay within 100 to 500 nM.

As for `CCC[C@H](NC(=O)[C@@H]1[C@@H](C2CCCCC2)CCN1C(=O)[C@@H](NC(=O)[C@@H](NC(=O)c1ccc[nH]1)C1CCCCC1)C(C)(C)C)C(=O)C(=O)NC1CC1` [Compound 72], the 50% inhibitory concentration (IC50) in assay [1] (setting [3]) lay in the range of 500 to 1000 nM. Moreover, the inhibition constant (Ki) in assay [2] (setting [4]) is below 100 nM.

`CCCC(NC(=O)[C@@H]1[C@@H](CC)CCN1C(=O)[C@@H](NC(=O)[C@@H](NC(=O)c1cnccn1)C1CCCCC1)C(C)(C)C)C(=O)C(=O)N[C@@H](Cc1ccccc1)C(=O)O` (stereo partly drawn) [Compound 41] (Pyrazinecarbonyl-[Chg][Tle][Pro(3S-Et)][X1]F-OH) yielded an IC50 in assay [1] (48 h) below 500 nM. In addition, the inhibitory constant (Ki) in assay [2] (setting [4]) was above 500 nM.

Regarding `CCCC(NC(=O)[C@@H]1[C@@H](C2CCCCC2)CCN1C(=O)[C@@H](NC(=O)[C@@H](NC(=O)C1CSC(=O)N1)C1CCCCC1)C(C)(C)C)C(=O)C(=O)N[C@@H](C)c1ccccc1` (some centres unmarked) [Compound 63], the concentration for half-maximal inhibition (IC50) in assay [1] (setting [3]) fell in the range of 500 to 1000 nM. The molecule further registered a Ki in assay [2] below 100 nM.

Regarding `CCC[C@H](NC(=O)[C@@H]1[C@@H](C2CCCCC2)CCN1C(=O)[C@@H](NC(=O)[C@@H](NC(=O)c1cnccn1)C1CCCCC1)C(C)(C)C)C(=O)C(=O)NC1CC1` [Compound 66], the IC50 in assay [1] (setting [3]) was 500 to 1000 nM. Further, the Ki in assay [2] (setting [4]) was 100 to 500 nM.
